Reference: ChEMBL document CHEMBL4316584, “All that glitters is not gold: Panning cytotoxic natural products and derivatives with a fused tricyclic backbone by the estimation of their leadlikeness for cancer treatment” (Eur J Med Chem, 2019)

test system: HCT-116; experiment: Cytotoxicity against human HCT116 cells after 48 hrs by MTT assay; assay type: functional, cell-based; conditions: HCT-116, 48 h

| SMILES | IC50 |
| --- | --- |
| CC1CCN(C2=CC(=O)c3c(O)c4c(c(O)c3C2=O)C[C@](C)(O)[C@H](O)[C@H]4O)CC1 | 3.25 µM |
| CC(=O)O[C@@H]1[C@H](C)CC(O)=C2C(=O)c3c(ccc(-c4ccc(O)c5c4O[C@@]4(CO)C(=C(O)C[C@@H](C)[C@H]4OC(C)=O)C5=O)c3O)O[C@@]21CO | 7.12 µM |
| CC(C)=CCc1c(O)cc(O)c2c(=O)c3c(O)cccc3oc12 | 10.8 µM |
| C[C@]1(O)Cc2c(O)c3c(c(O)c2[C@H](O)[C@H]1O)C(=O)C=C(Nc1ccccc1)C3=O | 4.84 µM |
| COC1=CC(=O)c2c(O)c3c(c(O)c2C1=O)C[C@](C)(O)[C@H](O)[C@H]3O [BOSTRYCIN] | 4.78 µM |
| Cn1c2c(c3ccccc31)CCC(CN1CCCCC1)C2=O (centres undefined) | 2.33 µM |
| C[C@]1(O)Cc2c(O)c3c(c(O)c2C[C@H]1O)C(=O)C=C(N1CCCCC1)C3=O | 16.3 µM |

test system: A549; experiment: Cytotoxicity against human A549 cells after 48 hrs by MTT assay; assay type: functional, cell-based; conditions: Homo sapiens, A549, 48 h

| SMILES | IC50 |
| --- | --- |
| Cc1cnc2c(c1)C(=O)C1C=CC=NC1C2=O (centres undefined) | 2.23 µM |
| COC(=O)c1c(O)ccc2oc3cc(C)cc(O)c3c(=O)c12 | 5.2 µM |
| COC(=O)c1ccc2c(=O)c3c(OC)cc(CCO)cc3oc2c1O | 4.8 µM |
| CC(=O)N1N=C(c2ccco2)CC1c1cc2c([nH]c3ccccc32)c(-c2cccc(Cl)c2)n1 (centres undefined) | 15.4 µM |
| CC(=O)N1N=C(c2ccc(N)cc2)CC1c1cc2c([nH]c3ccccc32)c(-c2ccc(C(F)(F)F)cc2)n1 (centres undefined) | 13.2 µM |
| CC(C)=CCc1c(O)c(CC=C(C)C)c2oc3ccc(O)cc3c(=O)c2c1O | 8.85 µM |
| CC(C)c1cc2c(cc1O)[C@@]1(C)CCC[C@](C)(CO)[C@@H]1CC2 | 14 µM |
| O=C1c2c(O)ccnc2C(=O)C2C(c3ccccc3)=CC=NC12 (centres undefined) | 14.5 µM |
| O=c1c2ccccc2oc2cc(O)ccc12 | 14.6 µM |
| O=C(/C=C/c1cc2c([nH]c3ccccc32)c(-c2ccc(F)c(F)c2)n1)c1cccs1 | 6.76 µM |
| Cc1cnc2c(c1)C(=O)C1N=CC=C(/C=C/C#N)C1C2=O (centres undefined) | 7.88 µM |
| CC1=CC2C(=O)c3nccc(I)c3C(=O)C2N=C1 (centres undefined) | 0.14 µM |
| COc1ccc(C(=O)/C=C/c2cc3c([nH]c4ccccc43)c(-c3ccc(F)c(OC)c3)n2)cc1 | 5.1 µM |
| O=C(/C=C/c1cc2c([nH]c3ccccc32)c(-c2ccc(F)c(F)c2)n1)c1ccco1 | 9.54 µM |
| CC1=CC2C(=O)c3nccc(Cl)c3C(=O)C2N=C1 (centres undefined) | 13.7 µM |
| O=C(/C=C/c1cc2c([nH]c3ccccc32)c(-c2ccc(C(F)(F)F)cc2)n1)c1ccco1 | 2.57 µM |

| SMILES | IC50 |
| --- | --- |
| COc1ccc(C(=O)/C=C/c2cc3c([nH]c4ccccc43)c(-c3ccc(F)cc3)n2)cc1 | 8.43 µM |
| CC(=O)N1N=C(c2ccc(N)cc2)CC1c1cc2c([nH]c3ccccc32)c(-c2ccc(F)c(F)c2)n1 (centres undefined) | 9.77 µM |
| Cc1cnc2c(c1)C(=O)C1N=CC=CC1C2=O (centres undefined) | 3.72 µM |
| COc1cc(C2=NN(C(C)=O)C(c3cc4c([nH]c5ccccc54)c(-c4ccc(F)c(F)c4)n3)C2)cc(OC)c1OC (centres undefined) | 11 µM |
| CC1=CC2C(=O)c3nccc(N(C)C)c3C(=O)C2N=C1 (centres undefined) [listing 1 of 2 here] | 3.29 µM |
| Cc1cnc2c(c1)C(=O)C1N=CC=C(C=O)C1C2=O (centres undefined) | 0.33 µM |
| CC(=O)N1N=C(c2ccco2)CC1c1cc2c([nH]c3ccccc32)c(-c2ccc(C(F)(F)F)cc2)n1 (centres undefined) | 2.39 µM |
| O=C(/C=C/c1cc2c([nH]c3ccccc32)c(-c2cccc(Cl)c2)n1)c1ccco1 | 18.6 µM |
| COc1ccc(C(=O)/C=C/c2cc3c([nH]c4ccccc43)c(-c3cc(OC)c(OC)c(OC)c3)n2)cc1 | 9.61 µM |
| CC(C)(O)c1ccc2c(c1)C(=O)C[C@H]1C(C)(C)CCC[C@]21C | 14 µM |
| Nc1ccc(C(=O)/C=C/c2cc3c([nH]c4ccccc43)c(-c3ccc(C(F)(F)F)cc3)n2)cc1 | 2.95 µM |
| COc1cc(-c2nc(C3CC(c4ccco4)=NN3C(C)=O)cc3c2[nH]c2ccccc23)cc(OC)c1OC (centres undefined) | 3.2 µM |
| CN(Cc1ccccc1)CC1CCc2c(n(C)c3ccccc23)C1=O (centres undefined) | 14.1 µM |
| CC1CCN(CC2CCc3c(n(C)c4ccccc34)C2=O)CC1 (centres undefined) | 0.71 µM |
| CCN(CC)CC1CCc2c(n(C)c3ccccc23)C1=O (centres undefined) | 0.07 µM |

same assay, conditions: a549

| SMILES | IC50 |
| --- | --- |
| CC1=CC2C(=O)c3nccc(N(C)C)c3C(=O)C2N=C1 (centres undefined) [listing 2 of 2 here] | 3.12 µM |
